What is called EC50 is the concentration that produces a half-maximal response. A higher EC50 goes with weaker potency.

For this experiment, the target named is human PD-L1 (Homo sapiens (Human), UniProt Q9NZQ7). As to the kind of experiment: T cell activation luciferase reporter cell culture system (T Cell Activation Assay). To be noted: luciferase reporter assay; PD-L1 aAPC/CHO-K1 cells with PD-1 effector Jurkat T cells. Type of experiment: cell-based. A general note: Reporter assays use an easily measured gene product as a stand-in for the process of interest.
Chain of human PD-L1 (Q9NZQ7 19-290): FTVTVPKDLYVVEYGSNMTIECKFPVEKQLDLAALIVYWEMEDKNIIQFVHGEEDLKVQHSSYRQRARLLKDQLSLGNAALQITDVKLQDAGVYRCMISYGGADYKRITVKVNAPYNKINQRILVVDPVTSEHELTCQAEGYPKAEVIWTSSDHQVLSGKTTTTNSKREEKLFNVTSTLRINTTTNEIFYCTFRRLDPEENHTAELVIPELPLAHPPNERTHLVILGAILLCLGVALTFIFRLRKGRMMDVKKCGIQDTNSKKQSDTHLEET

In the case of `COc1cc(-c2nccc(-c3cccc(-c4ccc(CN[C@H]5CC[C@@H](OC)CC5)c(OC)n4)c3Cl)c2Cl)ccc1CN[C@H]1CC[C@@H](OC)CC1` [Example 448, (1s,4s)-N-((6-(2-Chloro-3-(3-chloro-2-(3-methoxy-4-((((1s,4s)-4-methoxycyclohexyl)amino)methyl)phenyl)pyridin-4-yl)phenyl)-2-methoxypyridin-3-yl)methyl)-4-methoxycyclohexan-1-amine], the EC50 is 76.3 nM. Regarding `COc1cc(-c2nccc(-c3cccc(-c4ccc(CN5CC6(CNC(=O)C6)C5)c(OC)n4)c3F)c2F)ccc1CN1CC2(CNC(=O)C2)C1` [Example 451, 2-(4-(3-Fluoro-4-(2-fluoro-3-(6-methoxy-5-((7-oxo-2,6-diazaspiro[3.4]octan-2-yl)methyl)pyridin-2-yl)phenyl)pyridin-2-yl)-2-methoxybenzyl)-2,6-diazaspiro[3.4]octan-7-one], it took 1970 nM to reach a half-maximal effect (EC50).

`COc1nc(-c2cccc(-c3ccnc(-c4cc(OC)c5nc(CN[C@H]6CC[C@H](O)CC6)cn5c4)c3Cl)c2Cl)ccc1CN[C@H]1CC[C@H](O)CC1` [Example 453, (1r,4r)-4-(((6-(2-Chloro-3-(3-chloro-2-(2-((((1r,4r)-4-hydroxycyclohexyl)amino)methyl)-8-methoxyimidazo[1,2-a]pyridin-6-yl)pyridin-4-yl)phenyl)-2-methoxypyridin-3-yl)methyl)amino)cyclohexan-1-ol] registered an EC50 of 270 nM. As for `COc1nc(-c2cccc(-c3ccnc(-c4cc(OC)c5nc(CN6CC7(CCC(=O)N7)C6)cn5c4)c3Cl)c2Cl)ccc1CN1CC2(CCC(=O)N2)C1` [Example 454, 2-((6-(2-Chloro-3-(3-chloro-2-(8-methoxy-2-((6-oxo-2,5-diazaspiro[3.4]octan-2-yl)methyl)imidazo[1,2-a]pyridin-6-yl)pyridin-4-yl)phenyl)-2-methoxypyridin-3-yl)methyl)-2,5-diazaspiro[3.4]octan-6-one], the EC50 came to 203 nM.

`COc1nc(-c2cccc(-c3ccnc(-c4cc(OC)c5nc(CN6CC(C)(O)C6)cn5c4)c3Cl)c2Cl)ccc1CN1CC(C)(O)C1` [Example 455, 1-((6-(2-Chloro-3-(3-chloro-2-(2-((3-hydroxy-3-methylazetidin-1-yl)methyl)-8-methoxyimidazo[1,2-a]pyridin-6-yl)pyridin-4-yl)phenyl)-2-methoxypyridin-3-yl)methyl)-3-methylazetidin-3-ol] gave an EC50 of 174 nM. The molecule `COc1cc(-c2nccc(-c3cccc(-c4ccc(CNC5CCN(C(=O)C6CCCCC6)CC5)c(OC)n4)c3Cl)c2Cl)ccc1CNC1CCN(C(=O)C2CCCCC2)CC1` [Example 456, (4-(((6-(2-Chloro-3-(3-chloro-2-(4-(((1-(cyclohexanecarbonyl)piperidin-4-yl)amino)methyl)-3-methoxyphenyl)pyridin-4-yl)phenyl)-2-methoxypyridin-3-yl)methyl)amino)piperidin-1-yl)(cyclohexyl)methanone] yielded an EC50 of 291 nM. Take `COc1cc(-c2nccc(-c3cccc(-c4ccc(CN5CCNC(=O)C5)c(OC)n4)c3Cl)c2Cl)ccc1CN1CCNC(=O)C1` [Example 457, 4-((6-(2-Chloro-3-(3-chloro-2-(3-methoxy-4-((3-oxopiperazin-1-yl)methyl)phenyl)pyridin-4-yl)phenyl)-2-methoxypyridin-3-yl)methyl)piperazin-2-one]: the EC50 was no less than 10000 nM. Consider `COc1cc(-c2nccc(-c3cccc(-c4ccc(CNC5CCN(C(C)=O)CC5)c(OC)n4)c3Cl)c2Cl)ccc1CN1CCC(O)CC1` [Example 459, 1-(4-(((6-(2-Chloro-3-(3-chloro-2-(4-((4-hydroxypiperidin-1-yl)methyl)-3-methoxyphenyl)pyridin-4-yl)phenyl)-2-methoxypyridin-3-yl)methyl)amino)piperidin-1-yl)ethan-1-one], for which the EC50 came to 33 nM. In the case of `COc1nc(-c2cccc(-c3ccnc(-c4cc5c(=O)n(CCNCC(=O)O)c(OC)nn5c4)c3Cl)c2Cl)ccc1CNC[C@@H]1CCC(=O)N1` [Example 460, (S)-(2-(6-(3-Chloro-4-(2-chloro-3-(6-methoxy-5-((((5-oxopyrrolidin-2-yl)methyl)amino)methyl)pyridin-2-yl)phenyl)pyridin-2-yl)-2-methoxy-4-oxopyrrolo[2,1-f][1,2,4]triazin-3(4H)-yl)ethyl)glycine] it was 96.5 nM; in that of `COc1cc(-c2nccc(-c3cccc(-c4ccc(CN5CCC(NC(C)=O)CC5)c(OC)n4)c3C)c2C)ccc1CN1CCC(NC(C)=O)CC1` [Example 461, N-(1-((6-(3-(2-(4-((4-Acetamidopiperidin-1-yl)methyl)-3-methoxyphenyl)-3-methylpyridin-4-yl)-2-methylphenyl)-2-methoxypyridin-3-yl)methyl)piperidin-4-yl)acetamide], no less than 10000 nM; in that of `COc1cc(-c2nccc(-c3cccc(-c4ccc(CN[C@H]5CC[C@H](O)CC5)c(OC)n4)c3Cl)c2C)ccc1CN[C@H]1CC[C@H](O)CC1` [Example 463, (1r,4r)-4-(((6-(2-Chloro-3-(2-(4-((((1r,4r)-4-hydroxycyclohexyl)amino)methyl)-3-methoxyphenyl)-3-methylpyridin-4-yl)phenyl)-2-methoxypyridin-3-yl)methyl)amino)cyclohexan-1-ol], 288 nM. `COc1cc(-c2nccc(-c3cccc(-c4ccc(CN5CC6(COC6)C5)c(OC)n4)c3Cl)c2C)ccc1CN1CC2(COC2)C1` [Example 464, 6-(4-(4-(3-(5-((2-Oxa-6-azaspiro[3.3]heptan-6-yl)methyl)-6-methoxypyridin-2-yl)-2-chlorophenyl)-3-methylpyridin-2-yl)-2-methoxybenzyl)-2-oxa-6-azaspiro[3.3]heptane] showed an EC50 of 226 nM.

On to `COC(=O)N1CCC(NCc2ccc(-c3nccc(-c4cccc(-c5ccc(CNC6CCN(C(=O)OC)CC6)c(OC)n5)c4Cl)c3Cl)cc2OC)CC1` [Example 465, Methyl 4-(((6-(2-chloro-3-(3-chloro-2-(3-methoxy-4-(((1-(methoxycarbonyl)piperidin-4-yl)amino)methyl)phenyl)pyridin-4-yl)phenyl)-2-methoxypyridin-3-yl)methyl)amino)piperidine-1-carboxylate], for which the EC50 was found to be 48.3 nM. Regarding `COc1cc(-c2nccc(-c3cccc(-c4ccc(CN5CCC(NC(C)=O)CC5)c(OC)n4)c3Cl)c2C)ccc1CN1CCC(NC(C)=O)CC1` [Example 466, N-(1-((6-(3-(2-(4-((4-Acetamidopiperidin-1-yl)methyl)-3-methoxyphenyl)-3-methylpyridin-4-yl)-2-chlorophenyl)-2-methoxypyridin-3-yl)methyl)piperidin-4-yl)acetamide], the EC50 is no less than 10000 nM. The molecule `COc1cc(-c2nccc(-c3cccc(-c4ccc(CN5CCC(NC(C)=O)CC5)c(OC)n4)c3C)c2Cl)ccc1CN1CCC(NC(C)=O)CC1` [Example 467, N-(1-((6-(3-(2-(4-((4-acetamidopiperidin-1-yl)methyl)-3-methoxyphenyl)-3-chloropyridin-4-yl)-2-methylphenyl)-2-methoxypyridin-3-yl)methyl)piperidin-4-yl)acetamide] yielded an EC50 of no less than 10000 nM. As for `COc1cc(-c2nccc(-c3cccc(-c4ccc(CN(C)C5CCOCC5)c(OC)n4)c3Cl)c2Cl)ccc1CNC1CCOCC1` [Example 468, N-((6-(2-chloro-3-(3-chloro-2-(3-methoxy-4-(((tetrahydro-2H-pyran-4-yl)amino)methyl)phenyl)pyridin-4-yl)phenyl)-2-methoxypyridin-3-yl)methyl)-N-methyltetrahydro-2H-pyran-4-amine], the figure is 97.1 nM.

The values are drawn from patent US20240246964A1 (Arbutus Biopharma Corporation, priority 2021, published 2024).
